This is an account of results in patent US11584754B2, “Derivatives of thailanstatin A, methods of treatment and methods of synthesis thereof” (WILLIAM MARSH RICE UNIVERSITY, priority 2016, dated 2023).

Holding throughout (assay type): cell-based, human
Assay [1] has as its system MES SA. Put plainly: Cytotoxicity assay (72 hour killing assay, CellTiter-Glo), MES SA. To be noted: MES-SA, read-out: Cancer cell lines IC50 (nM) MES SA. As for the experimental part: (§1) Cells were cultured in a T75 flask to ˜50-80% confluency and harvested with trypsin into a single cell suspension. Five hundred (500) cells per well were seeded in tissue culture plates in 50 μL/well culture media and incubated at 37° C. for 18-24 h. Compounds were diluted as 400× final desired concentrations in DMSO. Serial dilutions in DMSO were then diluted in culture media for a final DMSO concentration of 0.25% and 50 μL/well of the final dilution was added to the cells (Vf=100 μL). Upon plating and treatment, cells were returned to the incubator for an additional 72 hours. CellTiter-Glo reagent was prepared per manufacturer's instructions and added at 100 μL/well to the cultures. CellTiter-Glo allows for relative enumeration of metabolically active cells by quantifying intracellular ATP concentrations. After 5 minutes of incubation with CellTiter-Glo at ambient room temperature, 125 μL/well of the Cell Titer glo/cell lysate solution was transferred into black assay plates, which were then read in a luminometer within 30 minutes.
(§2) MES SA and MES SA/Dx cells are uterine sarcoma. MES SA Dx cell line was generated from MES SA to achieve upregulation of MDR1.
(In general: Cellular ATP, detected with luciferase, serves as a proxy for viable cell number.)

Assay [2] concerns MES SA DX. The experiment in a line: Cytotoxicity assay (72 hour killing assay, CellTiter-Glo), MES SA DX. To be noted: Homo sapiens, read-out: Cancer cell lines IC50 (nM) MES SA DX. The method, then:
as §1, §2

In assay [3] the test system is HEK 293T. The experiment in a line: Cytotoxicity assay (72 hour killing assay, CellTiter-Glo), HEK 293T. To be noted: Homo sapiens, HEK-293T, 72 h, read-out: Cancer cell lines IC50 (nM) HEK 293T. As for the experimental part: as §1
293T cells are human embryonic kidney cell line.

Read-outs that look alike come from different tables or passages of the source.

Consider `COC(=O)C[C@@H]1C[C@@]2(CO2)[C@H](O)[C@@H](/C=C/C(C)=C/C[C@@H]2O[C@H](C)[C@H](NC(=O)/C=C\[C@H](C)OC(=O)N3CCCCC3)C[C@H]2C)O1` [Compound 38, (2S,3Z)-5-{[(2R,3R,5R,6S)-6-{(2E,4E)-5-[(3R,4R,5R,7S)-4-Hydroxy-7-(2-methoxy-2-oxoethyl)-1,6-dioxaspiro[2.5]oct-5-yl]-3-methylpenta-2,4-dien-1-yl}-2,5-dimethyltetrahydro-2H-pyran-3-yl]-amino}-5-oxopent-3-en-2-yl piperidine-1-carboxylate], for which the IC50 in assay [1] (Homo sapiens, 72 h) was > 2500 nM; in assay [2] (MES-SA, 72 h), > 2500 nM; in assay [3], > 400 nM.
On to `COC(=O)C[C@@H]1C[C@@]2(CO2)[C@H](OC(C)=O)[C@@H](/C=C/C(C)=C/C[C@@H]2O[C@H](C)[C@H](NC(=O)/C=C\[C@H](C)OC(C)=O)C[C@@H]2C)O1` [Compound 45, Methyl [(3R,5S,7R,8R)-8-acetoxy-7-{(1E,3E)-5-[(2S,3S,5R,6R)-5-{[(2Z,4S)-4-acetoxypent-2-enoyl]-amino}-3,6-dimethyltetrahydro-2H-pyran-2-yl]-3-methylpenta-1,3-dien-1-yl}-1,6-dioxaspiro[2.5]-oct-5-yl]acetate], for which the IC50 in assay [1] (Homo sapiens, 72 h) amounted to 6.82 nM; in assay [2] (MES-SA, 72 h) it was 6.73 nM; in assay [3], 0.58 nM.
On the same counts, the results for `COC(=O)C[C@@H]1CC2(CC2)[C@H](O)[C@@H](/C=C/C(C)=C/C[C@@H]2O[C@H](C)[C@H](NC(=O)/C=C\[C@H](C)OC(C)=O)C[C@@H]2C)O1` [Compound 43, Methyl [(5S,7R,8S)-7-{(1E,3E)-5-[(2S,3S,5R,6R)-5-{[(2Z,4S)-4-acetoxypent-2-enoyl]amino}-3,6-di-methyltetrahydro-2H-pyran-2-yl]-3-methylpenta-1,3-dien-1-yl}-8-hydroxy-6-oxaspiro[2.5]oct-5-yl]-acetate] are > 2500 nM, > 2500 nM and 88.3 nM.
On to `COC(=O)C[C@@H]1C[C@@]2(CO2)[C@H](O)[C@@H](/C=C/C(C)=C\C[C@@H]2O[C@H](C)[C@H](NC(=O)/C=C\[C@H](C)OC(C)=O)C[C@H]2C)O1` [Compound 47, Methyl [(3R,5S,7R,8R)-7-{(1E,3Z)-5-[(2S,3R,5R,6R)-5-{[(2Z,4S)-4-acetoxypent-2-enoyl]amino}-3,6-dimethyltetrahydro-2H-pyran-2-yl]-3-methylpenta-1,3-dien-1-yl}-8-hydroxy-1,6-dioxaspiro[2.5]-oct-5-yl]acetate], for which the IC50 in assay [1] (Homo sapiens, 72 h) is > 1000 nM; in assay [2] (MES-SA, 72 h) it was > 1000 nM; in assay [3], > 1000 nM.
Take `COC(=O)C[C@@H]1C[C@@]2(CO2)[C@H](O)[C@@H](/C=C/C(C)=C/C[C@@H]2O[C@H](C)[C@H](NC(=O)/C=C\[C@H](C)OC(C)=O)C[C@@H]2C)O1` [Compound 2, Thailanstatin A methyl ester]: the IC50 in assay [1] (Homo sapiens, 72 h) turned out to be 0.32 nM; in assay [2] (MES-SA, 72 h), 3.6 nM; in assay [3] it was 0.36 nM.
For `COC(=O)C[C@@H]1C[C@@]2(CO2)[C@H](O)[C@@H](/C=C/C(C)=C/C[C@@H]2O[C@H](C)[C@H](NC(=O)/C=C\[C@H](C)OC(=O)N3CCCCC3)C[C@@H]2C)O1` [Compound 42] the same measures were 3.68 nM, 3.45 nM and 0.24 nM.
For `CC(=O)O[C@@H](C)/C=C\C(=O)N[C@@H]1C[C@H](C)[C@H](C/C=C(C)/C=C/[C@H]2O[C@H](CC(=O)O)C[C@@]3(CO3)[C@@H]2O)O[C@@H]1C` [Compound 1, Thailanstatin A] the same measures were 419 nM, > 400 nM and 296 nM.
For `CC(=O)O[C@@H](C)/C=C\C(=O)N[C@@H]1C[C@H](C)[C@H](C/C=C(C)/C=C/[C@H]2O[C@H](CC(=O)NC3CC3)C[C@@]3(CO3)[C@@H]2O)O[C@@H]1C` [Compound 31, (2S,3Z)-5-({(2R,3R,5S,6S)-6-[(2E,4E)-5-{(3R,4R,5R,7S)-7-[2-(Cyclopropylamino)-2-oxoethyl]-4-hydroxy-1,6-dioxaspiro[2.5]oct-5-yl}-3-methylpenta-2,4-dien-1-yl]-2,5-dimethyltetrahydro-2H-pyran-3-yl}amino)-5-oxopent-3-en-2-yl acetate] the same measures were 1.04 nM, 105 nM and 0.739 nM.
For `COC(=O)C[C@@H]1C[C@@]2(CO2)[C@H](O)[C@@H](/C=C/C(C)=C/C[C@@H]2O[C@H](C)[C@H](NC(=O)/C=C\[C@H](C)OC(C)=O)C=C2C)O1` [Compound 32], the IC50 was > 1000 nM in assay [1] (Homo sapiens, 72 h); > 1000 nM in assay [2] (MES-SA, 72 h); > 1000 nM in assay [3].
On to `COC(=O)C[C@@H]1C[C@@]2(CO2)[C@H](O)[C@@H](/C=C/C(C)=C/C[C@@H]2O[C@H](C)[C@H](NC(=O)/C=C\[C@H](C)OC(=O)N(C)C)C[C@@H]2C)O1` [Compound 36, Methyl [(3R,5S,7R,8R)-7-{(1E,3E)-5-[(2S,3S,5R,6R)-5-({(2Z,4S)-4-[(dimethylcarbamoyl)oxy]pent-2-enoyl}amino)-3,6-dimethyltetrahydro-2H-pyran-2-yl]-3-methylpenta-1,3-dien-1-yl}-8-hydroxy-1,6-dioxaspiro[2.5]oct-5-yl]acetate], for which the IC50 amounted to 0.92 nM in assay [1] (Homo sapiens, 72 h); 1.09 nM in assay [2] (MES-SA, 72 h); 0.08 nM in assay [3].
For `COC(=O)C[C@@H]1C[C@@]2(CO2)[C@H](O)[C@@H](/C=C/C(C)=C/C[C@@H]2O[C@H](C)[C@H](NC(=O)/C=C\[C@H](C)OC(C)=O)C[C@H]2C)O1` [Compound 34, Methyl [(3R,5S,7R,8R)-7-{(1E,3E)-5-[(2S,3R,5R,6R)-5-{[(2Z,4S)-4-acetoxypent-2-enoyl]amino}-3,6-dimethyltetrahydro-2H-pyran-2-yl]-3-methylpenta-1,3-dien-1-yl}-8-hydroxy-1,6-dioxaspiro[2.5]-oct-5-yl]acetate] the same measures were 649 nM, > 1000 nM and > 1000 nM.
On the same counts, the results for `COC(=O)C[C@@H]1C[C@@]2(CO2)[C@H](O)[C@@H](/C=C/C(C)=C/C[C@@H]2O[C@H](C)[C@H](NC(=O)/C=C\[C@H](C)OC(=O)N3CCOCC3)C[C@H]2C)O1` [Compound 40] are > 2500 nM, > 2500 nM and > 400 nM.
On the same counts, the results for `COC(=O)C[C@@H]1C[C@@]2(CO2)[C@H](O)[C@@H](/C=C/C(C)=C/C[C@H]2O[C@H](C)[C@H](NC(=O)/C=C\[C@H](C)OC(C)=O)C=C2C)O1` [Compound 30] are > 1000 nM, > 1000 nM and > 1000 nM.
Turning to `CCOC(=O)CCNC(=O)C[C@@H]1C[C@@]2(CO2)[C@H](O)[C@@H](/C=C/C(C)=C/C[C@@H]2O[C@H](C)[C@H](NC(=O)/C=C\[C@H](C)OC(C)=O)C[C@@H]2C)O1` [Compound 35, Ethyl 3-({[(3R,5S,7R,8R)-7-{(1E,3E)-5-[(2S,3S,5R,6R)-5-{[(2Z,4S)-4-acetoxypent-2-enoyl]amino}-3,6-dimethyltetrahydro-2H-pyran-2-yl]-3-methylpenta-1,3-dien-1-yl}-8-hydroxy-1,6-dioxaspiro-[2.5]oct-5-yl]acetyl}amino)propanoatee], the IC50 in assay [1] (Homo sapiens, 72 h) stood at 6.9 nM; in assay [2] (MES-SA, 72 h) it was 261 nM; in assay [3], 2.2 nM.
For `COC(=O)C[C@@H]1C[C@@]2(CO2)[C@H](O)[C@@H](/C=C/C(C)=C/C[C@@H]2O[C@H](C)[C@H](NC(=O)/C=C\[C@H](C)OC(=O)N3CCOCC3)C[C@@H]2C)O1` [Compound 44] the same measures were 2.66 nM, 3.71 nM and 0.15 nM.
In the case of `CC(=O)O[C@H]1C(=O)[C@@]2(C)[C@H]([C@H](OC(=O)c3ccccc3)[C@]3(O)C[C@H](OC(=O)[C@H](O)[C@@H](NC(=O)c4ccccc4)c4ccccc4)C(C)=C1C3(C)C)[C@]1(OC(C)=O)CO[C@@H]1C[C@@H]2O` [paclitaxel, reference compound], the IC50 in assay [1] (50% inhibitory concentration against cell growth, human uterine sarcoma cell line, 72 hours) is 2.47 nM; in assay [2] (50% inhibitory concentration against cell growth, MES SA cell line with marked multidrug resistance, 72 hours), > 400 nM.
Consider `CCOC(=O)CCNC(=O)C[C@@H]1C[C@@]2(CO2)[C@H](O)[C@@H](/C=C/C(C)=C/C[C@@H]2O[C@H](C)[C@H](NC(=O)/C=C\[C@H](C)OC(C)=O)C[C@H]2C)O1` [Compound 33, Ethyl 3-({[(3R,5S,7R,8R)-7-{(1E,3E)-5-[(2S,3R,5R,6R)-5-{[(2Z,4S)-4-acetoxypent-2-enoyl]amino}-3,6-dimethyltetrahydro-2H-pyran-2-yl]-3-methylpenta-1,3-dien-1-yl}-8-hydroxy-1,6-dioxaspiro[2.5]oct-5-yl]acetyl}amino)propanoate], for which the IC50 in assay [1] (Homo sapiens, 72 h) was 512 nM; in assay [2] (MES-SA, 72 h) it was > 2500 nM; in assay [3], 1480 nM.

As usually defined, the IC50 is the concentration at which inhibition is half-maximal.
